System: rat TM fragment
Assay: Integrity of the TM fragment and seal, trypan-blue dye transit into the lower chamber
Type: in vitro ADME
Details: 0.5% trypan-blue in upper chamber, immediately and after 1–4 hours, visual and absorbance at 590 nm
Text: Rat TMs were interposed between the two chambers.

SMILES: Cc1cc(-c2ccc(/N=N/c3c(S(=O)(=O)O)cc4cc(S(=O)(=O)O)cc(N)c4c3O)c(C)c2)ccc1/N=N/c1c(S(=O)(=O)O)cc2cc(S(=O)(=O)O)cc(N)c2c1O [trypan-blue]
- dye transit into the lower chamber across an intact TM fragment: excluded from the lower chamber

Source: PMC6081404, “Active Transport of Peptides Across the Intact Human Tympanic Membrane” (Scientific Reports, 2018)
